According to patent publication US20260365653A1, “IRREVERSIBLE MUTEGFR INHIBITORS” (Bayer Aktiengesellschaft, priority 2022, published 2026):
pIC50: −log10 of the molar value.

How the values were obtained:
[1] = target: T1, mutEGFR (D770_N771insSVD) (Homo sapiens, UniProt P00533, DUP768-770); assay: Exon20-Mutant-EGFR (D770_N771insSVD) kinase assay (TR-FRET); assay type: biochemical; settings: mutEGFR (D770_N771insSVD) kinase assay IC50, Table 2a; D770_N771insSVD; 2 mM ATP
T1 construct: GST-EGFR #3 (SVD between D770 and N771); made in house; host or cells: Sf9 insect cells (baculovirus)

BA/F3 (insSVD) cells = assay: Ba/F3-EGFR-insSVD cell survival assay (Cell Titer-Glo); assay type: cell-based; settings: Table 3a, cell survival, Cell Titer-Glo, with 10 ng/ml EGF, without IL-3
Description: Cellular Data Description (WT, insSVD, insSVD T790M) 293T cells from ATCC were transfected with pBABEpuro expression constructs for WT EGFR or EGFR-insSVD, or EGFR-insSVD T790M, and pCL-Eco packaging vector using Fugene-6 transfection reagent from Promega. Plates were incubated at 37° C. for 48 h. Retrovirus was harvested by filtering the media supernatant through a 0.45 μm filter.
Ba/F3 cells purchased from DSMZ were grown in RPMI+10% FBS+10 ng/ml IL-3 and infected with filtered retroviral supernatant at a 1:2 dilution. Polybrene was added to a concentration of 8 μg/mL, plates were spun for 90 min, and incubated for 16 h at 37° C. 2 μg/mL puromycin was added to the infected cells 24 h after infection and cells were continually grown in the presence of puromycin and 10 ng/ml IL-3. Following stably expressing Ba/F3 cell lines were generated: Ba/F3-EGFR-WT, Ba/F3-EGFR-insSVD, Ba/F3-EGFR-insSVD T790M, (Ba/F3-vector-control).
For cell survival assays, Ba/F3 cells were grown to a density of 1-2 million cells per mL, spun down and resuspended in media without IL-3, and replated at a concentration of 200,000-500,000 cells per mL. The cells ectopically expressing WT EGFR, EGFR-insSVD, or EGFR-insSVD T790M were plated with 10 ng/ml Millipore Culture grade EGF. The cells ectopically expressing pBABEpuro empty vector were plated with 10 ng/mL IL-3.
2 days later, cells were plated in 50 µL in a 384 well plate at a concentration of 4000 cells per well for cells assayed in the absence of IL-3 and 2000 cells per well for cells assayed in the presence of IL-3. 100 nL of compound was added to each well using a 100 nL pin head, and plates were incubated at 37° C. for 48 h.
Cell viability was measured by adding 20 μL of Cell Titer-Glo Luminescent Cell Viability Reagent diluted 1:3 in PBS. Plates were sealed with Perkin Elmer Top-Seal, inverted several times to mix, and immediately centrifuged at 1000 rpm for 2 min. Plates were incubated in low light conditions for 8-10 min and luminescence was measured.

[2] = target: T2, mutEGFR (D770_N771insNPG, T790) (Homo sapiens, UniProt P00533, INS770NPG/T790M); assay: mutEGFR (D770_N771insNPG, T790) kinase assay; assay type: biochemical; settings: Table 2a, D770_N771insNPG
T2 construct: exact insNPG construct not described; in-house EGFR proteins were N-terminal GST fusions from baculovirus/insect cells (borders R669-A1210 given only for WT, insSVD, insASV)
Text: The different EGFR proteins used in the biochemical kinase activity inhibition assays were generated inhouse by expression in insect cells using Baculo Virus system and subsequent purification as described in the following paragraphs.
The cDNAs encoding the various protein sequences from human EGFR human (P00533) were optimized for expression in eukaryotic cells and synthesized by the GeneArt Technology at Life Technologies.

T2 sequence (P00533 with tags, fused parts or gaps INS770NPG/T790M limits assumed): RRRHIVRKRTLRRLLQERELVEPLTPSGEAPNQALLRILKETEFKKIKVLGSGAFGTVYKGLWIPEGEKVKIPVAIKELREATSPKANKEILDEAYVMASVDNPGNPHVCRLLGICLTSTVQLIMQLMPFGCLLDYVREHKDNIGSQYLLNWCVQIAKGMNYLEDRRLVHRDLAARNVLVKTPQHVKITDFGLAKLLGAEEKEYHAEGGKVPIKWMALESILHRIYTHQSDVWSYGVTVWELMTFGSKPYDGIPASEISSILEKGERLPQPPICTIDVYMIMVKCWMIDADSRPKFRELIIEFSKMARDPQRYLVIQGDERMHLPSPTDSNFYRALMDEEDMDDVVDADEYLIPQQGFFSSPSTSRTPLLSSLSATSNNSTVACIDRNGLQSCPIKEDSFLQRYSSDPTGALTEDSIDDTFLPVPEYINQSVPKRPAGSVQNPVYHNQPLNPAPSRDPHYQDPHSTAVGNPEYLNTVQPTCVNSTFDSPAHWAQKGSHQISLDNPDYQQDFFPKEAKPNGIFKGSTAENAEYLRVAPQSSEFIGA
T1 sequence (P00533 with tags, fused parts or gaps DUP768-770): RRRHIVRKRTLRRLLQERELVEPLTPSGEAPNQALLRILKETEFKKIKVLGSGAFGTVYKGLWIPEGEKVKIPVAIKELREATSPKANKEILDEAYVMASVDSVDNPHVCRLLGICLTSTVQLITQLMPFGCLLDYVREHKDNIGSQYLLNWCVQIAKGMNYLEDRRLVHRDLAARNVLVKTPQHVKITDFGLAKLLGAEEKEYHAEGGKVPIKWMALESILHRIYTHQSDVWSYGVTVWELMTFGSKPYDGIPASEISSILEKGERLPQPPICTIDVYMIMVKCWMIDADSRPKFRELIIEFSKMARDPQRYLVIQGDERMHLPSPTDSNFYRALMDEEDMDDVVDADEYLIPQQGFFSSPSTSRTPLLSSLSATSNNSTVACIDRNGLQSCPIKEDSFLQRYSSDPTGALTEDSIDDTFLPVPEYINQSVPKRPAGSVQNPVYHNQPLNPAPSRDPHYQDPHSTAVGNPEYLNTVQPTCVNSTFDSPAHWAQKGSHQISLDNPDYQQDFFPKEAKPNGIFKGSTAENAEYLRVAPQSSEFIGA

Structure (SMILES)	pIC50 [1]	pIC50 (BA/F3 (insSVD) cells; Mus musculus, BaF3, 48 h)	pIC50 [2]	pIC50 (BA/F3 (insSVD) cells; 48 h)
C=CC(=O)N1Cc2c(-c3ccncc3)c(-c3ccc(F)cc3)nn2C(C(=O)NC)C1 (single isomer, unassigned; isomer 1) [Example 205, 5-acryloyl-2-(4-fluorophenyl)-N-methyl-3-(pyridin-4-yl)-4,5,6,7-tetrahydropyrazolo[1,5-a]pyrazine-7-carboxamide (isomer 1)]	6.86	6.08	6.84	
C=CC(=O)N1Cc2c(-c3ccncc3)c(-c3ccc(F)cc3)nn2C(C(=O)N(C)C)C1 (single isomer, unassigned; isomer 1) [Example 206, 5-acryloyl-2-(4-fluorophenyl)-N,N-dimethyl-3-(pyridin-4-yl)-4,5,6,7-tetrahydropyrazolo[1,5-a]pyrazine-7-carboxamide (isomer 1)]	7.26	6.22	7.08	
C=CC(=O)N1CCn2nc(-c3ccc(F)cc3)c(-c3ccnc4[nH]ccc34)c2C1C (single isomer, unassigned; isomer 1) [Example 249, 1-(2-(4-fluorophenyl)-4-methyl-3-(1H-pyrrolo[2,3-b]pyridin-4-yl)-6,7-dihydropyrazolo[1,5-a]pyrazin-5(4H)-yl) prop-2-en-1-one (isomer 1)]	6.43	7.01	7.24	
CC1c2c(-c3ccnc4[nH]ccc34)c(-c3ccc(F)cc3)nn2CCN1C(=O)/C=C/CN(C)C (single isomer, unassigned; isomer 1) [Example 255, 4-(dimethylamino)-1-[2-(4-fluorophenyl)-4-methyl-3-(1H-pyrrolo[2,3-b]pyridin-4-yl)-6,7-dihydropyrazolo[1,5-a]pyrazin-5(4H)-yl]but-2-en-1-one (isomer 1)]	5.50	6.53	5.02	
C=CC(=O)N1CCn2nc(-c3ccc(C(F)(F)F)cc3)c(-c3ccnc4[nH]ccc34)c2C1C (single isomer, unassigned; isomer 1) [Example 258, 1-(4-methyl-3-(1H-pyrrolo[2,3-b]pyridin-4-yl)-2-(4-(trifluoromethyl)phenyl)-6,7-dihydropyrazolo[1,5-a]pyrazin-5(4H)-yl) prop-2-en-1-one (isomer 1)]	7.00		5.97	7.08
C=CC(=O)N1CCn2nc(-c3ccc(C(F)(F)F)cc3)c(-c3ccnc4[nH]cc(C)c34)c2C1C (single isomer, unassigned; isomer 1) [Example 259, 1-(4-methyl-3-(3-methyl-1H-pyrrolo[2,3-b]pyridin-4-yl)-2-(4-(trifluoromethyl)phenyl)-6,7-dihydropyrazolo[1,5-a]pyrazin-5(4H)-yl) prop-2-en-1-one (isomer 1)]	6.17	6.53	4.88	
C=CC(=O)N1CCn2nc(-c3ccc(F)cc3)c(-c3ccnc4[nH]cc(C)c34)c2C1C (single isomer, unassigned; isomer 1) [Example 262, 1-(2-(4-fluorophenyl)-4-methyl-3-(3-methyl-1H-pyrrolo[2,3-b]pyridin-4-yl)-6,7-dihydropyrazolo[1,5-a]pyrazin-5(4H)-yl) prop-2-en-1-one (isomer 1)]	5.79		6.40	6.34
CC1c2c(-c3ccnc4[nH]ccc34)c(-c3ccc(C(F)(F)F)cc3)nn2CCN1C(=O)/C=C/CN(C)C (single isomer, unassigned; isomer 1) [Example 264, (E)-4-(dimethylamino)-1-(4-methyl-3-(1H-pyrrolo[2,3-b]pyridin-4-yl)-2-(4-(trifluoromethyl)phenyl)-6,7-dihydropyrazolo[1,5-a]pyrazin-5(4H)-yl) but-2-en-1-one (isomer 1)]	6.12		5.95	6.89
